Data taken from patent US4022900A, “Compositions containing 1,2,3,4-tetrahydroisoquinolines used as hypotensive agents” (Marion Laboratories, Inc., priority 1972, dated 1977).
Where a name gives a salt, the structure may show the parent alone. Read-outs that look alike come from different tables or passages of the source.

Key:
[1] = system: systolic blood pressure of deoxycorticosterone acetate hypertensive rats; assay: Hypotensive activity in DCA/saline hypertensive rats (systolic blood pressure, tail cuff); type: in vivo, rat (male, CD strain); details: for Lowering of Blood Pressure in Hypertensive rate in mm's of Hg., 1 hr. / Lowering of Blood Pressure in Hypertensive rate in mm's of Hg., 2 hrs. / Lowering of Blood Pressure in Hypertensive rate in mm's of Hg., 4 hrs. / Lowering of Blood Pressure in Hypertensive rate in mm's of Hg., 24 hrs. / compounds which appear most active from Table I: 50 mg/kg intraperitoneal; for Lowering of Blood Pressure in Hypertensive rate in mm's of Hg., 1 hr. / Lowering of Blood Pressure in Hypertensive rate in mm's of Hg., 2 hrs. / Lowering of Blood Pressure in Hypertensive rate in mm's of Hg., 4 hrs. / Lowering of Blood Pressure in Hypertensive rate in mm's of Hg., 24 hrs.: change vs predrug control, six rats; for Percent Change in Pressure from Control ± S.E., 1 Hour / Percent Change in Pressure from Control ± S.E., 2 Hours / Percent Change in Pressure from Control ± S.E., 4 Hours / Percent Change in Pressure from Control ± S.E., 24 Hours: 50 mg/kg i.p., systolic pressure, * <0.05 significance (Newman-Keuls); for compounds which appear most active from Table I: qualitative ranking
Method: Hypertension was produced in weanling (30-day old) male rats of the CD strain obtained from the Charles River Breeding Laboratories (Wilmington, Mass.) by subcutaneously implanting about the dorsal surface of the neck a pellet of deoxycorticosterone acetate (DCA) containing 10 mg DCA in a mixture of Carbowax 4000 (Union Carbide) and Flexowax C light (Glyco Products). Their drinking water was replaced by a 1% sodium chloride solution, a procedure known to facilitate the development of an experimental hypertension, and they had free access to chow. Systolic blood pressure in the caudal arteries was measured indirectly by a pneumatic pulse transducer and a tail pressure cuff on a Physiograph Four recorder (Narco Bio-Systems, Inc., Houston, Texas) in unanesthetized but restrained rats prewarmed to 40° C., 10-15 minutes prior to the determination. The rats were kept at a temperature of 40° C. for all determinations of systolic pressure in an attempt to minimize variations in blood pressure due to marked changes in arterial tone caused by changes in temperature. Blood pressures were measured at intervals in the DCA-treated rats given saline and in non-treated control rats. After 20 days, the mean systolic pressure in the DCA-treated rats was above 150 mm Hg. Hypertension was regarded as being established in the rats at this stage and they were at intervals, usually beginning with the 30th day after DCA-implant in testing for hypotensive activity. Following a series of control blood pressure readings, a dose of 50 mg/kg of the compound under investigation was administered by intraperitoneal injection either in solution or as a suspension in 1% tragacanth solution to groups of six hypertensive rats. Blood pressures were redetermined at 1, 2, 4 and 24 hour periods following injection. At each interval, the systolic pressure was measured a minimum of five times in each rat and the average value was calculated. Mean values for the group were calculated from the individual average values and compared with their predrug control levels. The statistical significance of the changes produced by the compounds, in the doses employed, was tested by the "t" test as well as by an analysis of variance. The reductions in blood pressure obtained with the indicated representative tetrahydroisoquinoline compounds are shown in Table I. The code number for the compound and the example herein showing its preparation are both given in Table I.
(§1) Additional compounds have been tested. The toxicity data for the additional compounds tested, and their identity, is given in the following Table II while the blood pressure lowering activity of the compounds is given in the following Table III. The heading "Example Number" in the tables refers to the working example herein which discloses the compounds and its preparation. The test procedure used for determining the blood pressure lowering activity of the compounds is the same as that previously set forth herein. However, the figures in Table III are expressed as percentage change in blood pressure, rather than in mm of mercury change in blood pressure, as presented in Table I herein.

[2] = Acute toxicity (LD50) in the mouse; details: in vivo; for LD50 at 24 h: read-out: Approximate Acute Toxicity (24 hrs.) In the Mouse, LD50
Method: 5-(3,4,5-trimethoxybenzamido)-2-methyl-1,2,3,4-tetrahydroisoquinoline (M-20) in mice has an LD-50 of about 125 to 250 mg/kg intraperitoneally.
as §1
Approximate Acute Toxicity (24 hrs.)
(a) Suspension in 1% tragacanth
(b) Solution in distilled water
(c) Solubilized with the aid of dilute acid

femoral artery of a dog = assay: Peripheral vasodilator activity after administration into femoral artery of a dog; type: in vivo; details: into the femoral artery, compared with papaverine
[3] = system: arterial blood pressure of anesthetized dog; assay: Arterial blood pressure in the anesthetized dog; type: in vivo; details: 5 mg/kg intravenously
[4] = Table I, unit, species and route not given

SMILES | Lowering of Blood Pressure in Hypertensive rate in mm's of Hg., 1 hr. [1] | Lowering of Blood Pressure in Hypertensive rate in mm's of Hg., 2 hrs. [1] | Lowering of Blood Pressure in Hypertensive rate in mm's of Hg., 4 hrs. [1] | Lowering of Blood Pressure in Hypertensive rate in mm's of Hg., 24 hrs. [1] | LD50 [2, 4] [mg/kg] | Percent Change in Pressure from Control ± S.E., 1 Hour [1] [%] | Percent Change in Pressure from Control ± S.E., 2 Hours [1] [%] | Percent Change in Pressure from Control ± S.E., 4 Hours [1] [%] | Percent Change in Pressure from Control ± S.E., 24 Hours [1] [%] | LD50 at 24 h ([2]; ip, solubilized with the aid of dilute acid) [mg/kg] | peripheral vasodilator activity (femoral artery of a dog) | arterial blood pressure [3] | LD50 ([2]; ip, mice, intraperitoneally, about) [mg/kg] | compounds which appear most active from Table I [1] | LD50 at 24 h ([2]; ip, suspension in 1% tragacanth) [mg/kg]
COc1cc(OC)c(C(=O)Nc2cccc3c2CCN(C)C3)cc1OC [M-61, 5-(2,4,5-Trimethoxybenzamido)-2-methyl-1,2,3,4-tetrahydroisoquinoline] | -15±4 mm's of Hg | -19±5 mm's of Hg | -15±4 mm's of Hg | -6±6 mm's of Hg | 68 to 125 |  |  |  |  |  |  |  |  |  | 
CCc1cccc(CC)c1C(=O)Nc1cccc2c1CCN(C)C2 [M-66, 5-(2,6-Diethylbenzamido)-2-methyl-1,2,3,4-tetrahydroisoquinoline] |  |  |  |  |  | -5.7 ± 3.0 | -7.5 ± 4.6 | -6.1 ± 2.8 | -2.1 ± 2.3 | 125 to 250 |  |  |  |  | 
COc1cc(C(=O)Nc2cccc3c2CCN(C)C3)cc(OC)c1OC [M-20, 5-(3,4,5-Trimethoxybenzamido)-2-methyl-1,2,3,4-tetrahydroisoquinoline] | -19±3 mm's of Hg | -26±2 mm's of Hg | -15±10 mm's of Hg | -3±2 mm's of Hg | 125 to 250 |  |  |  |  |  | peripheral vasodilator activity although less than that of papaverine | decreased arterial blood pressure | 125 to 250 |  | 
COc1ccc(C(=O)Nc2cccc3c2CCN(C)C3)cc1OC [M-55, 5-(3,4-Dimethyoxybenzamido)-2-methyl-1,2,3,4-tetrahydroisoquinoline] | -32±5 mm's of Hg | -31±5 mm's of Hg | -32±4 mm's of Hg | -20±4 mm's of Hg | 125 to 250 |  |  |  |  |  |  |  |  | most active | 
COc1ccc(C(=O)Nc2cccc3c2CCNC3)cc1OC [M-34, 5-(3,4-Dimethoxybenzamido)-1,2,3,4-tetrahydroisoquinoline HCl] | -33±5 mm's of Hg | -28±7 mm's of Hg | -23±4 mm's of Hg | -2±6 mm's of Hg | 500 to 1000 |  |  |  |  |  |  |  |  | most active | 
COc1ccc(C(=O)Nc2cccc3c2CCNC3)cc1 [M-44, 5-(4-Methoxybenzamido)-1,2,3,4-tetrahydroisoquinoline HCl] |  |  |  |  |  | -8.8 ± 4.8 | -6.5 ± 3.7 | -8.3 ± 2.4 | -6.4 ± 1.3 |  |  |  |  |  | 500 to 1000
